Source: article PMC8348686, “The Pharmacological Profile of Second Generation Pyrovalerone Cathinones and Related Cathinone Derivative” (International Journal of Molecular Sciences, 2021)

Key:
h5-HT2B receptor = target: T1, h5-HT2B receptor (Homo sapiens, UniProt P41595); set-up: method as in Rickli et al. (2015); details: read-out: h5-HT2B Activation Potency EC50 ± SD; ref Rickli et al. (2015); cited from earlier work
T1 construct: expressed in transfected cells; host or cells: HEK293

h5-HT2A receptor [1] = target: T2, h5-HT2A receptor (Homo sapiens, UniProt P28223); set-up: expressed in transfected cells; host or cells: HEK293 cell preparations; details: read-out: h5-HT2A Receptor Binding Ki ± SD; [3H]-Ketanserin; ref Rickli et al. (2015); cited from earlier work
T2 sequence (P28223 whole entry): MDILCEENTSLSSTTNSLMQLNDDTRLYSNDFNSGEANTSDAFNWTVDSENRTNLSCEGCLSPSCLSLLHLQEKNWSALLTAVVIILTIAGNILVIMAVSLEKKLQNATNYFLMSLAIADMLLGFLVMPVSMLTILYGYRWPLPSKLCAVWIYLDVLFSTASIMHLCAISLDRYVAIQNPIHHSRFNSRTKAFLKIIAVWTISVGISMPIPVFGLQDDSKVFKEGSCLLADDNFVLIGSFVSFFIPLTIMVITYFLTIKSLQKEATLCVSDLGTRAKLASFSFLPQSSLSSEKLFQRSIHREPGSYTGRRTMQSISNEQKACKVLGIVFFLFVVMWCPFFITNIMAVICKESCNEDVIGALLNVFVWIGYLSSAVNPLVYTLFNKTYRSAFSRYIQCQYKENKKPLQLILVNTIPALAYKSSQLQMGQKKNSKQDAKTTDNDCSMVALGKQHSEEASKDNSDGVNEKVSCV

h5-HT2A receptor [2] = target: T2, h5-HT2A receptor; set-up: expressed in transfected cells; host or cells: HEK293 cell preparations; method as in Rickli et al. (2015); details: read-out: h5-HT2A Activation Potency EC50 ± SD; ref Rickli et al. (2015); cited from earlier work
hNET = hNET (Homo sapiens, UniProt P23975); test: Transporter binding, N-methyl-[3H]-nisoxetine
Chain of hNET (P23975 whole entry): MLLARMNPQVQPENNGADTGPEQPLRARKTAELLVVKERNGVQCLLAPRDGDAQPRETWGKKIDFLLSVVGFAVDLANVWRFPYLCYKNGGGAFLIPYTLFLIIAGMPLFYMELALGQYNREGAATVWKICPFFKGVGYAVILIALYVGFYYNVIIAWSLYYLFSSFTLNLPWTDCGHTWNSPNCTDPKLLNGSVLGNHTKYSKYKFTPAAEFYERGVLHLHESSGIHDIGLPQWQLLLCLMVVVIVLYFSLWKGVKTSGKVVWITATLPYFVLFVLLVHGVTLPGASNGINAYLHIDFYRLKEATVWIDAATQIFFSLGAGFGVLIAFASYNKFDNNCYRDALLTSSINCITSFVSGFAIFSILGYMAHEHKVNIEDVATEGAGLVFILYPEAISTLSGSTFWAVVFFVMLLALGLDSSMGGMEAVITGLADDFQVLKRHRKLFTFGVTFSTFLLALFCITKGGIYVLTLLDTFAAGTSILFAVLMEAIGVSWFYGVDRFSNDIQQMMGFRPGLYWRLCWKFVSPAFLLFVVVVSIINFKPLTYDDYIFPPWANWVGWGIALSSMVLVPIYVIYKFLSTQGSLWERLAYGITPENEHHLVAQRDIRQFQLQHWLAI
Source text: Table 3 Monoamine transporter and receptor binding affinities of pyrovalerone and NEH. | column: hNET / Receptor Binding / Ki ± SD [μM] / N-Methyl-[^3H]-nisoxetine

hDAT = hDAT (Homo sapiens, UniProt Q01959); test: Transporter binding, [3H]-WIN-35,428
Chain of hDAT (Q01959 whole entry): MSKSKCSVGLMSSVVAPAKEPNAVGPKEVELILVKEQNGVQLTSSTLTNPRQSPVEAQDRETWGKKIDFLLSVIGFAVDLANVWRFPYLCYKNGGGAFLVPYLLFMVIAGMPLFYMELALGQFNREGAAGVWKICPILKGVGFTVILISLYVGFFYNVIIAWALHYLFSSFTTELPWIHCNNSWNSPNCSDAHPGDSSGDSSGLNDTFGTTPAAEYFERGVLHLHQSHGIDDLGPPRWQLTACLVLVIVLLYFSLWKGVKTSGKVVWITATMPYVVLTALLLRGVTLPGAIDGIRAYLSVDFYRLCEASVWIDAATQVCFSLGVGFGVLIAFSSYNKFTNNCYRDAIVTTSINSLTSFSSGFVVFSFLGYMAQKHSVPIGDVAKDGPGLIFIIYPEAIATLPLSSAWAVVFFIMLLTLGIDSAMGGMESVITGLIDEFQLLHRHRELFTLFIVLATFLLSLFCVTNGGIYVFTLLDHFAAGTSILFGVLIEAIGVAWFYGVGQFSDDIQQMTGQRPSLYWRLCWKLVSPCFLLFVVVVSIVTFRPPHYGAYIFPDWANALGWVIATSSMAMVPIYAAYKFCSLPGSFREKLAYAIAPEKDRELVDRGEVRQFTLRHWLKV

hSERT = hSERT (Homo sapiens, UniProt P31645); test: Transporter binding, [3H]-citalopram
Chain of hSERT (P31645 whole entry): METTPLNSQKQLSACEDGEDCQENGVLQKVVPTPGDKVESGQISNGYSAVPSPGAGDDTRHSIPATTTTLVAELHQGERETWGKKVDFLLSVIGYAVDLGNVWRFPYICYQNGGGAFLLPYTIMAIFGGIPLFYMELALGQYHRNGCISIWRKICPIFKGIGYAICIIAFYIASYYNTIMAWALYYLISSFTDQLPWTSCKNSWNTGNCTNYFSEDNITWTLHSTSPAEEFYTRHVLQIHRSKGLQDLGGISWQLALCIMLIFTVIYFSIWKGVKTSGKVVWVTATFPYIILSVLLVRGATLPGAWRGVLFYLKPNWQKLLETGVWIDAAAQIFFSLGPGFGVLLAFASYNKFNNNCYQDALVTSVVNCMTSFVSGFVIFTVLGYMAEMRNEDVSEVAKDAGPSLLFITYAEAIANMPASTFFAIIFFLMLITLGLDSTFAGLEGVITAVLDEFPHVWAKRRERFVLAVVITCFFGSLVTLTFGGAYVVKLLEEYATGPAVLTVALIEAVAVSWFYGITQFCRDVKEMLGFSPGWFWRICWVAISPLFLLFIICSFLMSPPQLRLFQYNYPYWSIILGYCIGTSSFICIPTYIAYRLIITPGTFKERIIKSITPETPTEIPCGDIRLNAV

dopaminergic D2 receptor = dopaminergic D2 receptor (Homo sapiens, UniProt P14416); test: Receptor binding, [3H]-spiperone
Chain of dopaminergic D2 receptor (P14416 whole entry): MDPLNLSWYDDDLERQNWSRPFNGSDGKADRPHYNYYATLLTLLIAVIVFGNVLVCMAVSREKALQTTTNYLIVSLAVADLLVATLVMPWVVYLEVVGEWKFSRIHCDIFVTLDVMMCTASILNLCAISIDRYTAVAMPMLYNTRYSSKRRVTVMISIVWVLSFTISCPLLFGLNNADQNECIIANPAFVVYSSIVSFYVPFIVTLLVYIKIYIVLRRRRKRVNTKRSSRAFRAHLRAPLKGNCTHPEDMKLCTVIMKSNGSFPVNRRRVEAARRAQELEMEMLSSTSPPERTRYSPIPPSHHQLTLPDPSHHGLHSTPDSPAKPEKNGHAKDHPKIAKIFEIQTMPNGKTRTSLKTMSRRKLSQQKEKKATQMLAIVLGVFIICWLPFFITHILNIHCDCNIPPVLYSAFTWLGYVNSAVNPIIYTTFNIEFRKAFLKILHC
Source text: Table 3 Monoamine transporter and receptor binding affinities of pyrovalerone and NEH. | column: D2 / Receptor Binding / Ki ± SD [μM] / [^3H]-Spiperone

adrenergic α1A receptor = target: T3, adrenergic α1A receptor (Homo sapiens, UniProt P35348); test: Receptor binding, [3H]-prazosin
T3 sequence (P35348 1-466): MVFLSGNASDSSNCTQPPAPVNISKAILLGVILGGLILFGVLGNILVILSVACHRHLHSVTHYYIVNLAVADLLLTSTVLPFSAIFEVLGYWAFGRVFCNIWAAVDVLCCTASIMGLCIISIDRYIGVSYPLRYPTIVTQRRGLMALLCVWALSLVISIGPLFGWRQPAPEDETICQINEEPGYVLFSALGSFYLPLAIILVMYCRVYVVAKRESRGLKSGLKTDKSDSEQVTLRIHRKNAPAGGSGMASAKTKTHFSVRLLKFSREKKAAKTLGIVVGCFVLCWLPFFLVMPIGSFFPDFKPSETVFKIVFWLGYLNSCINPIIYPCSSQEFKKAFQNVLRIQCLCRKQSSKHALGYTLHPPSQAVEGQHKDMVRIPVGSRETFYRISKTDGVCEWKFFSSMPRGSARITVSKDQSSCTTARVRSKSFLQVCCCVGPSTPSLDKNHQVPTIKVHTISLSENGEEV

adrenergic α2A receptor = target: T4, adrenergic α2A receptor (Homo sapiens, UniProt P08913); test: Receptor binding, [3H]-rauwolscine
T4 sequence (P08913 1-465): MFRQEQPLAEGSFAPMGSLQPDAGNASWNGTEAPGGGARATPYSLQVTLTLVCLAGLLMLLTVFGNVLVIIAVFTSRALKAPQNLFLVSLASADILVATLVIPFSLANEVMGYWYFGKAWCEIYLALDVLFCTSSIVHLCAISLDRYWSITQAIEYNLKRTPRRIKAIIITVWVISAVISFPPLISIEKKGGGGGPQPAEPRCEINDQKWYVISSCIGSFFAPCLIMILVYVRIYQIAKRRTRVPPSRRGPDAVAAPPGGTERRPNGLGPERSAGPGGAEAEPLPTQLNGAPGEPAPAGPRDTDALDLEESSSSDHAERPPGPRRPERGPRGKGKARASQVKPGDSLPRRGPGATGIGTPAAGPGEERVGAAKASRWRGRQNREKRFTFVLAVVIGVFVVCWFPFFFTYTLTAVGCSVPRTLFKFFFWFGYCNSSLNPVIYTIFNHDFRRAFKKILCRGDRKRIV
Source text: Table 3 Monoamine transporter and receptor binding affinities of pyrovalerone and NEH. | column: α2A / Receptor Binding / Ki ± SD [μM] / [^3H]-Rauwolscine

T1 sequence (P41595 whole entry): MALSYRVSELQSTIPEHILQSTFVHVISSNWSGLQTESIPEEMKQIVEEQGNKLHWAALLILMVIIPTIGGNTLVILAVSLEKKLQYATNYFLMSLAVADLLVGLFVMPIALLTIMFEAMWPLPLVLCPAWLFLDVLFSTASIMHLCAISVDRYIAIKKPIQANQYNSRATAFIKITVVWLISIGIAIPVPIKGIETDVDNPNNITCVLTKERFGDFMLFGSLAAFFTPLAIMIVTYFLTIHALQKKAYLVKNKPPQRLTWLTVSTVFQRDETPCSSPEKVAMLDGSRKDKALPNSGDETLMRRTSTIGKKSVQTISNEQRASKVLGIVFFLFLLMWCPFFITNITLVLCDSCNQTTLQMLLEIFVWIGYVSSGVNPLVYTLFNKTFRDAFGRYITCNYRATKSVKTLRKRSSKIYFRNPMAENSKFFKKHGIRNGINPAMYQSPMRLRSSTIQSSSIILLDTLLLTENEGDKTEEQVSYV

Row | SMILES | EC50 (h5-HT2B receptor) | Ki (h5-HT2A receptor [1]) | EC50 (h5-HT2A receptor [2]) | Ki (hNET) | Ki (hDAT) | Ki (hSERT) | Ki (dopaminergic D2 receptor) | Ki (adrenergic α1A receptor) | Ki (adrenergic α2A receptor)
1 | CNC(C)Cc1ccc2c(c1)OCO2 (stereo not drawn) [MDMA, 3,4-methylenedioxymethamphetamine, reference compound] | > 20 µM | 6.3 ± 2.4 µM | 6.1 ± 0.3 µM |  |  |  |  |  | 
2 | Cc1ccc(C(=O)C(C)N2CCCC2)cc1 (stereo not drawn) [4-MePPP, 4-methyl-α-pyrrolidinopropiophenone] |  |  |  | 2.5 ± 0.7 µM | 0.3 ± 0.02 µM | > 7.4 µM | > 13 µM | 2.2 ± 0.1 µM | > 4.7 µM
